Laboratory results as given in ChEMBL document CHEMBL5465560, “Selectivity Literature for EUbOPEN Chemogenomic Library” (2024).

Columns and labels:
[1] = target: Wee1-like protein kinase 2 (Homo sapiens) (UniProt P0C1S8); assay: Selectivity interaction (KinomeScan (DiscoverX)) EUB0000595a WEE2; conditions: at 10 µM
[2] = target: Dual specificity mitogen-activated protein kinase kinase 2 (Homo sapiens) (UniProt P36507); assay: Selectivity interaction (KinomeScan (DiscoverX)) EUB0001079a MAP2K2; conditions: at 1 µM
[3] = target: Mitogen-activated protein kinase kinase kinase 1 (Homo sapiens, UniProt Q13233); assay: Selectivity interaction (KinomeScan (DiscoverX)) EUB0001079a MAP3K1; conditions: at 1 µM
[4] = target: Dual specificity testis-specific protein kinase 1 (Homo sapiens) (UniProt Q15569); assay: Selectivity interaction (KinomeScan (DiscoverX)) EUB0001079a TESK1; conditions: at 1 µM
[5] = target: Maternal embryonic leucine zipper kinase (Homo sapiens) (UniProt Q14680); assay: Selectivity interaction (Kinase panel (Z-LYTE Assay)) EUB0001632a MELK; conditions: at 10 µM
[6] = target: Leukocyte tyrosine kinase receptor (Homo sapiens, UniProt P29376); assay: Selectivity interaction (KinomeScan (DiscoverX)) EUB0000666a LTK; conditions: at 10 µM
[7] = target: BDNF/NT-3 growth factors receptor (Homo sapiens) (UniProt Q16620); assay: Selectivity interaction (KinomeScan (DiscoverX)) EUB0000666a NTRK2; conditions: at 10 µM
[8] = target: Ribosomal protein S6 kinase alpha-2 (Homo sapiens) (UniProt Q15349); assay: Selectivity interaction (KinomeScan (DiscoverX)) EUB0001049a RPS6KA2; conditions: at 1 µM
[9] = target: Macrophage colony-stimulating factor 1 receptor (Homo sapiens) (UniProt P07333); assay: Selectivity interaction (KinomeScan (DiscoverX)) EUB0001049a CSF1R; conditions: at 1 µM
[10] = target: Serine/threonine-protein kinase PLK2 (Homo sapiens, UniProt Q9NYY3)
[11] = target: Serine/threonine-protein kinase 32B (Homo sapiens) (UniProt Q9NY57); assay: Selectivity interaction (KinomeScan (DiscoverX)) EUB0000618a STK32B; conditions: at 10 µM
[12] = target: T1, 5-hydroxytryptamine receptor 2C (Homo sapiens) (UniProt P28335); assay: Selectivity interaction (Panel of kinases, GPCRs, ion channels and transporters (enzymatic assay)) EUB0000266bCl HTR2C
T1 sequence (whole entry): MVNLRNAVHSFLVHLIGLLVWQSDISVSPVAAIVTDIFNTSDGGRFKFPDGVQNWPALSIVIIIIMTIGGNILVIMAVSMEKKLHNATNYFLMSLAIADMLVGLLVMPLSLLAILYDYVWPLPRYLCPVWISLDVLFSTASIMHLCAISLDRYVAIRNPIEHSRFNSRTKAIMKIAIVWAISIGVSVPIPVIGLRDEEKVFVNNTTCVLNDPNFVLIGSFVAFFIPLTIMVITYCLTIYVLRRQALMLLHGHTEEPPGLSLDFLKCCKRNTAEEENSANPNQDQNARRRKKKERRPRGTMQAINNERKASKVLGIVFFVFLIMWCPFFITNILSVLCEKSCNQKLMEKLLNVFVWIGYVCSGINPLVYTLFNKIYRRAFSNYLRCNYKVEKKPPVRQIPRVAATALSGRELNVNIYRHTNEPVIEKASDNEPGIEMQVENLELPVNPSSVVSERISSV

[13] = target: T2, Serine/threonine-protein kinase tousled-like 1 (Homo sapiens) (UniProt Q9UKI8); assay: Selectivity interaction (ActivX KiNativ screen (kinase selectivity in THP-1 cell lysates)) EUB0000639a TLK1; format: subcellular; conditions: lysate, at 5 µM
T2 sequence (whole entry): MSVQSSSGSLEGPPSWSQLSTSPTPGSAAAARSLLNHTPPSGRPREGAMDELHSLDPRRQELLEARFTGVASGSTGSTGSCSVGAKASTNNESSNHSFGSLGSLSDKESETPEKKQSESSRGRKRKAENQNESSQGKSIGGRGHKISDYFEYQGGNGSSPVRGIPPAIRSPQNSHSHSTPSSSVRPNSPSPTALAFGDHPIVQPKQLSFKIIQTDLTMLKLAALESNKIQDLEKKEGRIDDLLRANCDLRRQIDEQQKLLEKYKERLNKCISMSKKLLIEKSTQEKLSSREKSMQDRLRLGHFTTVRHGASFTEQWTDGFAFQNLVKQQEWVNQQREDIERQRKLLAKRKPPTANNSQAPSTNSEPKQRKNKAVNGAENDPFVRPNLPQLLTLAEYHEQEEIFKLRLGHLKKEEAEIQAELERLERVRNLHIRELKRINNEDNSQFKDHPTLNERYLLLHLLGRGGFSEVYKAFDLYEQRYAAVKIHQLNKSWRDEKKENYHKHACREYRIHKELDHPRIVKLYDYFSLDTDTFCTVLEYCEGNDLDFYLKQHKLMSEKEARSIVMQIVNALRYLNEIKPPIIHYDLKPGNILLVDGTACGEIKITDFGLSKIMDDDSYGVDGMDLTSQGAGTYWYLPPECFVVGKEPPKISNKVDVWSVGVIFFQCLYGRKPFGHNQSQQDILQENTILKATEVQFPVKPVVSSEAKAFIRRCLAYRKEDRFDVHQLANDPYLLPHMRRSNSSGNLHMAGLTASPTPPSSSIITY

[14] = target: CDK7/Cyclin H/MNAT1 (Homo sapiens) (UniProt P51946+P50613+P51948); assay: Selectivity interaction (Kinase panel (Invitrogen)) EUB0000639a CDK7; format: protein-complex assay; conditions: at 200 nM
[15] = tested on: Proto-oncogene tyrosine-protein kinase receptor Ret (Homo sapiens), P07949 [V804L]; assay: (§1) Selectivity interaction (KinomeScan (DiscoverX)) EUB0000655a RET; conditions: at 10 µM
[16] = target: Proto-oncogene tyrosine-protein kinase receptor Ret (Homo sapiens, UniProt P07949); assay: as §1; conditions: at 10 µM
[17] = tested on: Proto-oncogene tyrosine-protein kinase receptor Ret (Homo sapiens), P07949 [M918T]; assay: as §1; conditions: at 10 µM
[18] = tested on: Proto-oncogene tyrosine-protein kinase receptor Ret (Homo sapiens), P07949 [V804M]; assay: as §1; conditions: at 10 µM
[19] = target: Glycogen synthase kinase-3 beta (Homo sapiens, UniProt P49841); conditions: at 10 µM

Chain of Proto-oncogene tyrosine-protein kinase receptor Ret (P07949 whole entry): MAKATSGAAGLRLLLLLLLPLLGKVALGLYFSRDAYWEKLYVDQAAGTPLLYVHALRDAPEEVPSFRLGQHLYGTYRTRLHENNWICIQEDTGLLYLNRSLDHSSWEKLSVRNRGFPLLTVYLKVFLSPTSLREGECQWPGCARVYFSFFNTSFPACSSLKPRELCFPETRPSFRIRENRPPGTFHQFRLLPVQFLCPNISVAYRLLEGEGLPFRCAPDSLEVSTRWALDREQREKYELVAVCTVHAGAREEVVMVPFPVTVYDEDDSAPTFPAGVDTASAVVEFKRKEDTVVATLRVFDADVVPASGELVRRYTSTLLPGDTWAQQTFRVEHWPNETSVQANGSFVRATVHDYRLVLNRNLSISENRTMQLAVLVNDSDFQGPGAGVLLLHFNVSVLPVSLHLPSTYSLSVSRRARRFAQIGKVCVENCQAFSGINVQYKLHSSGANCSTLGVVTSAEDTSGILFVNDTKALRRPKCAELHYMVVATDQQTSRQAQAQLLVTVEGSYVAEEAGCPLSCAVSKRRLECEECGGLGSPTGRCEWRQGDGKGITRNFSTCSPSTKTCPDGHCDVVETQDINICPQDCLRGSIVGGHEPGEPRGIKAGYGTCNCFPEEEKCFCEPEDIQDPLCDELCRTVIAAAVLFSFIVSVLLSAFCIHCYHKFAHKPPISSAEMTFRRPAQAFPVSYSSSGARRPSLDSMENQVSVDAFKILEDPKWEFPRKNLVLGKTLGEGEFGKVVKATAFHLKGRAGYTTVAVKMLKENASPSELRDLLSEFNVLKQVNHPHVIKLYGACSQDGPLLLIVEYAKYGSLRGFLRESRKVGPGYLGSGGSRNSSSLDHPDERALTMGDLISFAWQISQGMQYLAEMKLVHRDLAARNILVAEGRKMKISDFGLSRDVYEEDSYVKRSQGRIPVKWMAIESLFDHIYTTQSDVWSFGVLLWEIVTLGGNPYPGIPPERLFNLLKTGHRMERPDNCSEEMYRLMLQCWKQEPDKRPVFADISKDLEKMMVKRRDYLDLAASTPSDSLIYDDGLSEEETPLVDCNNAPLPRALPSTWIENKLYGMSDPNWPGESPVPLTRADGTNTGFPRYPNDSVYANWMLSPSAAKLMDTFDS
Chain of Proto-oncogene tyrosine-protein kinase receptor Ret (Homo sapiens), P07949 [V804L] (P07949 whole entry V804L): as the sequence (P07949 whole entry) above, with V804L counted along it
Chain of BDNF/NT-3 growth factors receptor (Homo sapiens) (Q16620 32-822 limits assumed): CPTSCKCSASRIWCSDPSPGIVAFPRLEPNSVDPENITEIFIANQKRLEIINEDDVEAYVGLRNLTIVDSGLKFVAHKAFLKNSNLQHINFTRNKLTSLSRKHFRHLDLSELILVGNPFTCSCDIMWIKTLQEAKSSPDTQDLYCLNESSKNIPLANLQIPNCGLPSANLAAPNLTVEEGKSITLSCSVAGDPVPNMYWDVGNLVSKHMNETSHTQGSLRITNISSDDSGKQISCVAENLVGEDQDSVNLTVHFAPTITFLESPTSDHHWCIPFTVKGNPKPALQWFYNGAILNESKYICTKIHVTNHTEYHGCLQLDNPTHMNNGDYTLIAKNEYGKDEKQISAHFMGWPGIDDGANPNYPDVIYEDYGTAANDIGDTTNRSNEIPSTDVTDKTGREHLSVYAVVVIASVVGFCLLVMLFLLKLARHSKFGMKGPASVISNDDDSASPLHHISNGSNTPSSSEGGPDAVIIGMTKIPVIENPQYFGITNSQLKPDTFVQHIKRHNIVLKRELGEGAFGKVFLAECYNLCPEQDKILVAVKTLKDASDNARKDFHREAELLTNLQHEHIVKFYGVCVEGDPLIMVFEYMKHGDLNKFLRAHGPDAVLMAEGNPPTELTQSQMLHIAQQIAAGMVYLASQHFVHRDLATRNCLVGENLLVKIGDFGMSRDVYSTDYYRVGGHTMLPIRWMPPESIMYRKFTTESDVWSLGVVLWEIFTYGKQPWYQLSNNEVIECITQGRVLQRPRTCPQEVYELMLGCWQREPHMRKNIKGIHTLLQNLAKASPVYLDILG
Chain of Serine/threonine-protein kinase PLK2 (Q9NYY3 whole entry): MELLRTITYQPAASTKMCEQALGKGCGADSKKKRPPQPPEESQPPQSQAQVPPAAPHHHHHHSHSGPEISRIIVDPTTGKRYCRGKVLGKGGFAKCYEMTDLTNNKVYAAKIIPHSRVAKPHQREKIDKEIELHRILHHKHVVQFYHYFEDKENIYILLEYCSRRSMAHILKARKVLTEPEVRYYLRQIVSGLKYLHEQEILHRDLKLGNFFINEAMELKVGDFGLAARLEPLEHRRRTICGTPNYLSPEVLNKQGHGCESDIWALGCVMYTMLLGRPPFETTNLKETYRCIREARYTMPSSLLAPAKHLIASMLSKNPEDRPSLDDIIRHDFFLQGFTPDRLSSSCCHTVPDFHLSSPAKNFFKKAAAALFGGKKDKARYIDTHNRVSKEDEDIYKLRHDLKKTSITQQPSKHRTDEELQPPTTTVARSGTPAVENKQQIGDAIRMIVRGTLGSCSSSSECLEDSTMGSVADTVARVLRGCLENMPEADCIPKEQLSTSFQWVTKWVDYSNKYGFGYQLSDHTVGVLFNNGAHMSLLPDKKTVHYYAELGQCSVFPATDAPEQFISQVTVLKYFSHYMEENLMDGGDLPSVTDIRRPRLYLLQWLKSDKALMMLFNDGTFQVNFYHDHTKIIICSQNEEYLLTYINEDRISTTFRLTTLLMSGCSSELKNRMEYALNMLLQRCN
Chain of Proto-oncogene tyrosine-protein kinase receptor Ret (Homo sapiens), P07949 [M918T] (P07949 whole entry M918T): as the sequence (P07949 whole entry) above, with M918T counted along it
Chain of Serine/threonine-protein kinase 32B (Homo sapiens) (Q9NY57 whole entry): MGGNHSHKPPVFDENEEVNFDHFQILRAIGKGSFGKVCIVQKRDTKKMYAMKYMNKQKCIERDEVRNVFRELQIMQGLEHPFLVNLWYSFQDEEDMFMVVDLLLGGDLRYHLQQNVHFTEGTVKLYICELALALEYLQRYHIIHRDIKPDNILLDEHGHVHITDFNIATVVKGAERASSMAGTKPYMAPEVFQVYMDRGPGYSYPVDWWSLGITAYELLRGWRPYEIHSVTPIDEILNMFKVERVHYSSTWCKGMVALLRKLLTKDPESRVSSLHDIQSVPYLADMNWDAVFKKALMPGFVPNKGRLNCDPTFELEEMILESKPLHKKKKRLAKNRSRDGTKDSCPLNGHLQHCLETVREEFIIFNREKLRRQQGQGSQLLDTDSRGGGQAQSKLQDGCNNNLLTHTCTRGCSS
Chain of Ribosomal protein S6 kinase alpha-2 (Homo sapiens) (Q15349 whole entry): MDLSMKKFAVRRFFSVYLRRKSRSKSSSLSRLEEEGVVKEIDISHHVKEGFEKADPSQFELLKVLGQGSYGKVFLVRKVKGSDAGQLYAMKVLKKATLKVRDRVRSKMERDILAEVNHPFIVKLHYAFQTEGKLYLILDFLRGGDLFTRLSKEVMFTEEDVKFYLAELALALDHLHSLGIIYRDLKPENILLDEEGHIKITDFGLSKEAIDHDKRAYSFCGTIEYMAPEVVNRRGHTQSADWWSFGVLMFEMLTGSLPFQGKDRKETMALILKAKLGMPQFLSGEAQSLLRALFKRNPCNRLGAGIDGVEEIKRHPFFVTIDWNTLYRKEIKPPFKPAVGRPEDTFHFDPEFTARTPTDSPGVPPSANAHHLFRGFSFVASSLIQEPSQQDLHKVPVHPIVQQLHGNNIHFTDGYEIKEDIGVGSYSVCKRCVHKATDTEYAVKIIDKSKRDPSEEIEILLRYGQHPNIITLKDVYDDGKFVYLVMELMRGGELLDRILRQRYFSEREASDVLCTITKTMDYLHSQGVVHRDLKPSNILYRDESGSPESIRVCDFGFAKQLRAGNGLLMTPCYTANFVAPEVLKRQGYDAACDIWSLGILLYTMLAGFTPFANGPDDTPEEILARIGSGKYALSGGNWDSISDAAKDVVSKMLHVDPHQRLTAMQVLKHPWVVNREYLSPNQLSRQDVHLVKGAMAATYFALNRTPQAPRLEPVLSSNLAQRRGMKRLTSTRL
Chain of Dual specificity mitogen-activated protein kinase kinase 2 (Homo sapiens) (P36507 whole entry): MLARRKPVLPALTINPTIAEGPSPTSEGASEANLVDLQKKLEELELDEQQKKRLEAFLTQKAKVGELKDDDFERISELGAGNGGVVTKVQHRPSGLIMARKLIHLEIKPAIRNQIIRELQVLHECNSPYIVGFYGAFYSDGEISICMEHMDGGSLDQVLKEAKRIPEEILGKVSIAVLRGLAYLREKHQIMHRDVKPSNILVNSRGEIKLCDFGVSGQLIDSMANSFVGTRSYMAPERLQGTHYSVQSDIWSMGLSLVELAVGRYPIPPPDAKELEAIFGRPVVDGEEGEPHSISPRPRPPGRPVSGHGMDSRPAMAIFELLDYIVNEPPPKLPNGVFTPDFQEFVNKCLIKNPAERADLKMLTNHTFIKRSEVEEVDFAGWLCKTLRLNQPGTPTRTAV
Chain of Wee1-like protein kinase 2 (Homo sapiens) (P0C1S8 whole entry, looked up): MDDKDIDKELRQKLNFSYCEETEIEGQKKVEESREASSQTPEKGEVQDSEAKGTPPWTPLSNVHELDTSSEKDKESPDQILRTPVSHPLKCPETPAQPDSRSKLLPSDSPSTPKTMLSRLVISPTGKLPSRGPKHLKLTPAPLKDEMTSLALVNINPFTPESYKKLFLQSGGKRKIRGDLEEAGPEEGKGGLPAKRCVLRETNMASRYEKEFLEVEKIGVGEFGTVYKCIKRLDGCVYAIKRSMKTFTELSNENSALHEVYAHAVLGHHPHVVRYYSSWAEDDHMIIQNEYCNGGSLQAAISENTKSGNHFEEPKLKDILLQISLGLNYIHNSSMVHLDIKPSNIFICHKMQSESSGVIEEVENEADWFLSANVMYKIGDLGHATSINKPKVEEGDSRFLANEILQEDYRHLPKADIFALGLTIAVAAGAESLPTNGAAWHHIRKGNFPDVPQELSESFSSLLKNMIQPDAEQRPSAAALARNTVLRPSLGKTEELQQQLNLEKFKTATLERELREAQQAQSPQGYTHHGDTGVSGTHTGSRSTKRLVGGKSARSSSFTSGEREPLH
Chain of Proto-oncogene tyrosine-protein kinase receptor Ret (Homo sapiens), P07949 [V804M] (P07949 whole entry V804M): as the sequence (P07949 whole entry) above, with V804M counted along it

COCC(=O)NC/C=C/c1ccc2ncnc(Nc3ccc(Oc4ccc(C)nc4)c(C)c3)c2c1 [CP-724714]
% of control [1]: 81%

Nc1cnc(N2CCc3cc(S(=O)(=O)Nc4c(F)cc(Cl)cc4F)cc(N4CCCC4=O)c32)nc1 [TP-020n]
% of control [2]: 92%
% of control [3]: 100%
% of control [4]: 100%

Cn1cc(-n2cnc3c(NCc4nc5cc(Cl)c(Cl)cc5[nH]4)nc(N4CCOCC4)nc32)cn1
% of control [5]: 26.9%

O=C(NOC[C@H](O)CO)c1ccc(F)c(F)c1Nc1ccc(I)cc1F
% of control [6]: 100%
% of control [7]: 100%

COc1cc(Nc2nc(C)cc(-c3cnn4nc(OC)ccc34)n2)cc(C(F)(F)F)c1
% of control [8]: 90%
% of control [9]: 100%

CCc1cccc(CC)c1NC(=O)c1nn(C)c2c1CCc1cnc(Nc3ccc(C(=O)NC4CCN(C)CC4)cc3OC(F)(F)F)nc1-2
IC50 [10]: > 10 µM

O[C@H]1CC[C@H](Nc2ncc3nc(Nc4c(F)cc(F)cc4F)n([C@H]4CCOC4)c3n2)CC1
% of control [11]: 87%

CCn1c(-c2nc3cc(C(=O)N4CCCC(N)C4)ccc3n2C)cc2ccccc21 (centres undefined)
pXC50 [12]: < 4.4 M

CC[C@@H]1[C@H](F)C(=O)N[C@@H]1COc1nccc2cc(C(N)=O)c(OC)cc12 [ZIMLOVISERTIB]
% of inhibition [13]: 74%
% of inhibition [14]: 2.84%

CN(C)CCOc1ccc(-c2nc(-c3ccncc3)c(-c3ccc4c(c3)CC/C4=N\O)[nH]2)cc1
% of control [15]: 100%
% of control [16]: 100%
% of control [17]: 88%
% of control [18]: 92%

CCN(CC)CCCCNc1ncc2cc(-c3cc(OC)cc(OC)c3)c(NC(=O)NC(C)(C)C)nc2n1
% of control [19]: 100%
